From patent publication US20250332125A1, “TREATMENT OF MODERATE AND SEVERE GASTROPARESIS” (priority 2016, published 2025)

Legend:
Format in all cases: in vivo, human
[1] = Phase 3 study of metoclopramide nasal spray: safety, treatment-emergent adverse events
Protocol: The study was a U.S. multicenter, randomized, double-blind, placebo-controlled, parallel-group study of the efficacy and safety of IN MCP compared to placebo in adult female subjects with diabetic gastroparesis. Diabetic women with clinical symptoms attributed to diabetic gastroparesis, and documentation of delayed gastric emptying who met the protocol-specified entry criteria were randomized 1:1 in a parallel-group design to IN MCP (10 mg metoclopramide) or placebo administered as a single nasal spray four times daily; 30 minutes before meals and at bedtime for a total of four weeks. Eligible patients received a dose of IN MCP or placebo 30 minutes before meals and at bedtime daily.
Diabetic women with clinical symptoms attributed to diabetic gastroparesis and documentation of delayed gastric emptying who met the protocol-specified entry criteria were randomized to Metoclopramide Nasal Spray 10 mg or placebo administered as a single intranasal spray four (4) times daily; 30 minutes before meals and at bedtime for a total of four (4) weeks.

[2] = test system: adult female subjects with diabetic gastroparesis; assay: Phase 3 multicenter, randomized, double-blind, placebo-controlled study of metoclopramide nasal spray: symptom efficacy (GSA scores); set-up: Estimated Mean Change from Baseline in Mean Daily GSA Total Scores (LSMean from ANCOVA) / Mean Change from Baseline in Mean Daily Nausea Score (LSMean from ANCOVA): scale not given here; settings: for Mean Change from Baseline in Mean Daily Nausea Score (LSMean from ANCOVA) / Mean Change from Baseline in Mean Daily Upper Abdominal Pain Score (LSMean from ANCOVA): ITT Population with Moderate to Severe Symptoms; for Estimated Mean Change from Baseline in Mean Daily GSA Total Scores (LSMean from ANCOVA): Baseline GSA >2.7 (BOCF)
Protocol: A multicenter, randomized, double-blind, placebo-controlled clinical study of intranasal metoclopramide (“IN MCP”) in female diabetic gastroparesis patients was carried out. The study explored the use of IN MCP for the relief of symptoms associated with acute and recurrent diabetic gastroparesis in adult women. […] The study was a U.S. multicenter, randomized, double-blind, placebo-controlled, parallel-group study of the efficacy and safety of IN MCP compared to placebo in adult female subjects with diabetic gastroparesis. Diabetic women with clinical symptoms attributed to diabetic gastroparesis, and documentation of delayed gastric emptying who met the protocol-specified entry criteria were randomized 1:1 in a parallel-group design to IN MCP (10 mg metoclopramide) or placebo administered as a single nasal spray four times daily; 30 minutes before meals and at bedtime for a total of four weeks. Eligible patients received a dose of IN MCP or placebo 30 minutes before meals and at bedtime daily. A total of 205 female gastroparesis patients were enrolled. Of the total, nearly half had been identified as having moderate to severe gastroparesis. […] Diabetic women with clinical symptoms attributed to diabetic gastroparesis and documentation of delayed gastric emptying who met the protocol-specified entry criteria were randomized to Metoclopramide Nasal Spray 10 mg or placebo administered as a single intranasal spray four (4) times daily; 30 minutes before meals and at bedtime for a total of four (4) weeks. Inclusion criteria included prior diagnosis of Type 1 or Type 2 diabetes, and diagnosis of diabetic gastroparesis with delayed gastric emptying. […]

[3] = Tardive dyskinesia reports over the clinical development program; settings: 1,311 exposed healthy volunteers and patients over the clinical development program
[4] = 10 mg intranasal four times daily, 4 weeks, N = 102
[5] = Week 1, 10 mg intranasal four times daily, N = 52
[6] = Week 2, 10 mg intranasal four times daily, N = 52
[7] = Week 3, 10 mg intranasal four times daily, N = 52
[8] = Week 4, 10 mg intranasal four times daily, N = 52

Reports of tardive dyskinesia [3]: no reports of tardive dyskinesia
SMILES: CCN(CC)CCNC(=O)c1cc(Cl)c(N)cc1OC [IN MCP, 4-amino-5-chloro-N-[2-(diethylamino)ethyl]-2-methoxybenzamide]
Treatment-Emergent Adverse Event Epistaxis, number of subjects [1, 4]: 1 (1%) | Treatment-Emergent Adverse Event Epistaxis, percent of subjects [1, 4]: 1 (1%) | Treatment-Emergent Adverse Event Fatigue, number of subjects [1, 4]: 2 (2%) | Treatment-Emergent Adverse Event Fatigue, percent of subjects [1, 4]: 2 (2%) | Treatment-Emergent Adverse Event Headache, number of subjects [1, 4]: 5 (5%) | Treatment-Emergent Adverse Event Headache, percent of subjects [1, 4]: 5 (5%) | Treatment-Emergent Adverse Event Nasal discomfort, number of subjects [1, 4]: 1 (1%) | Treatment-Emergent Adverse Event Nasal discomfort, percent of subjects [1, 4]: 1 (1%) | Central nervous system (CNS) effects that have been associated with oral and parenteral metoclopramide ([1]; delivered as a nasal spray): no central nervous system (CNS) effects observed | Drug-related adverse effects ([1]; intranasal): no reported drug-related adverse effects | Overall safety results ([1]; nasal spray 10 mg four times daily, 4 weeks): no significant adverse effects | Mean Change from Baseline in Mean Daily Nausea Score (LSMean from ANCOVA) [2, 5]: −0.859 | Mean Change from Baseline in Mean Daily Upper Abdominal Pain Score (LSMean from ANCOVA) [2, 5]: −0.641 | Mean Change from Baseline in Mean Daily Nausea Score (LSMean from ANCOVA) [2, 6]: −1.149 | Mean Change from Baseline in Mean Daily Upper Abdominal Pain Score (LSMean from ANCOVA) [2, 6]: −0.990 | Mean Change from Baseline in Mean Daily Nausea Score (LSMean from ANCOVA) [2, 7]: −1.242 | Mean Change from Baseline in Mean Daily Upper Abdominal Pain Score (LSMean from ANCOVA) [2, 7]: −1.194 | Mean Change from Baseline in Mean Daily Nausea Score (LSMean from ANCOVA) [2, 8]: −1.404 | Mean Change from Baseline in Mean Daily Upper Abdominal Pain Score (LSMean from ANCOVA) [2, 8]: −1.218 | Estimated Mean Change from Baseline in Mean Daily GSA Total Scores (LSMean from ANCOVA) ([2]; ITT, Week 1, 10 mg intranasal four times daily, N = 52): −0.588 | Estimated Mean Change from Baseline in Mean Daily GSA Total Scores (LSMean from ANCOVA) ([2]; ITT, Week 2, 10 mg intranasal four times daily, N = 52): −0.950 | Estimated Mean Change from Baseline in Mean Daily GSA Total Scores (LSMean from ANCOVA) ([2]; ITT, Week 3, 10 mg intranasal four times daily, N = 52): −1.096 | Estimated Mean Change from Baseline in Mean Daily GSA Total Scores (LSMean from ANCOVA) ([2]; ITT, Week 4, 10 mg intranasal four times daily, N = 52): −1.220 | Estimated Mean Change from Baseline in Mean Daily GSA Total Scores (LSMean from ANCOVA) ([2]; Per Protocol, Week 1, 10 mg intranasal four times daily, N = 38): −0.623 | Estimated Mean Change from Baseline in Mean Daily GSA Total Scores (LSMean from ANCOVA) ([2]; Per Protocol, Week 2, 10 mg intranasal four times daily, N = 38): −1.040 | Estimated Mean Change from Baseline in Mean Daily GSA Total Scores (LSMean from ANCOVA) ([2]; Per Protocol, Week 3, 10 mg intranasal four times daily, N = 38): −1.286 | Estimated Mean Change from Baseline in Mean Daily GSA Total Scores (LSMean from ANCOVA) ([2]; Per Protocol, Week 4, 10 mg intranasal four times daily, N = 38): −1.373 | Efficacy versus placebo, change from baseline ([2]; all enrolled patients across all severities of disease (205 female patients), 10 mg intranasal q.i.d.): no statistically significant change from baseline in efficacy versus placebo | Efficacy compared to placebo ([2]; mild gastroparesis, intranasal, same treatment regimen): did not demonstrate statistically significant efficacy | Improvements in nausea and abdominal pain ([2]; patient segment with moderate to severe symptoms of gastroparesis, versus placebo): clinically and statistically significant improvements | Efficacy versus placebo (post-hoc analysis) ([2]; patients who entered the study with moderate to severe gastroparesis, 10 mg intranasal q.i.d.): statistically significant efficacy
